Laboratory results published in patent US7247634B2, “Rifamycin derivatives effective against drug-resistant microbes” (Cumbre Pharmaceuticals Inc., priority 2004, dated 2007).
Converted amounts (≈) assume the structure as drawn.

Assays:
Type in all cases: cell-based
[1] = test system: Escherichia coli ATCC25922; assay: MIC, microbroth dilution (NCCLS); settings: rifS strain, Cation-Adjusted Mueller-Hinton Broth, 37° C., read-out: Antimicrobial activity (MIC)
[2] = test system: Staphylococcus aureus ATCC29213 rpoB^D417Y; assay: microbe, parasite or virus in culture; settings: ATCC29213, read-out: Antimicrobial activity (MIC)
How it was run: (§1)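 MICs by NCCLS broth microdilution, incubation at 37 °C, in cation-adjusted Mueller-Hinton broth. Strains: rifampin-resistant S. aureus ATCC 29213 with rpoB D417Y or H418Y, and quinolone-resistant EN1252a carrying gyrA S84L plus grlA S80F.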

[3] = test system: Staphylococcus aureus EN1252a gyrA^S84L grlA^S80F; assay: microbe, parasite or virus in culture; settings: read-out: Antimicrobial activity (MIC)
How it was run: as §1

[4] = test system: Staphylococcus aureus ATCC29213 rpoB^H418Y; assay: microbe, parasite or virus in culture; settings: ATCC29213, read-out: Antimicrobial activity (MIC)
How it was run: as §1

[5] = test system: Mycobacterium smegmatis ATCC700084; assay: MIC, microbroth dilution (NCCLS); settings: Mycolicibacterium smegmatis, rifS strain, Middlebrook Broth plus ADC Enrichment, 37° C., read-out: Antimicrobial activity (MIC)
[6] = test system: Haemophilus influenzae ATCC10211; assay: MIC, microbroth dilution (NCCLS); settings: rifS strain, BHI Broth with NAD and hematin, 37° C., read-out: Antimicrobial activity (MIC)
[7] = test system: Streptococcus pyogenes ATCC19615; assay: MIC, microbroth dilution (NCCLS); settings: rifS strain, THY Broth, 37° C., read-out: Antimicrobial activity (MIC)
[8] = test system: Staphylococcus aureus ATCC29213; assay: MIC, microbroth dilution (NCCLS); settings: rifS strain, Cation-Adjusted Mueller-Hinton Broth, 37° C., read-out: Antimicrobial activity (MIC)
[9] = test system: Staphylococcus epidermidis ATCC12228; assay: MIC, microbroth dilution (NCCLS); settings: rifS strain, Cation-Adjusted Mueller-Hinton Broth, 37° C., read-out: Antimicrobial activity (MIC)
[10] = test system: Streptococcus pneumoniae ATCC6303; assay: MIC, microbroth dilution (NCCLS); settings: rifS strain, THY Broth with 1 mg/mL catalase, 5% CO2, 37° C., read-out: Antimicrobial activity (MIC)
[11] = test system: Enterococcus faecalis ATCC29212; assay: MIC, microbroth dilution (NCCLS); settings: rifS strain, BHI Broth, 37° C., read-out: Antimicrobial activity (MIC)

Row | Structure (SMILES) | MIC [1] [µg/mL] | MIC [2] [µg/mL] | MIC [3] [µg/mL] | MIC [4] [µg/mL] | MIC [5] [µg/mL] | MIC [6] [µg/mL] | MIC [7] [µg/mL] | MIC [8] [µg/mL] | MIC [9] [µg/mL] | MIC [10] [µg/mL] | MIC [11] [µg/mL]
1 | CO[C@H]1/C=C/O[C@@]2(C)Oc3c(C)c(O)c4c(c3C2=O)C(=O)C(N[C@@H]2CCN(c3cc5c(cc3F)c(=O)c(C(=O)O)cn5C3CC3)C2)=C(NC(=O)/C(C)=C\C=C\[C@H](C)[C@H](O)[C@@H](C)[C@@H](O)[C@@H](C)[C@H](OC(C)=O)[C@@H]1C)C4=O [Example 8, (R)-3-[1-(3-Carboxy-1-cyclopropyl-6-fluoro-4-oxo-1,4-dihydroquinolin-7-yl)-pyrrolidin-3-ylamino]rifamycin S] | 0.125 to 8 (≈ 0.122 to 7.8 µM) | 0.06 to 32 (≈ 0.0585 to 31.2 µM) | 0.004 to 0.5 (≈ 0.0039 to 0.488 µM) | 0.06 to 16 (≈ 0.0585 to 15.6 µM) | 0.5 to 64 | 0.125 to 2 (≈ 0.122 to 1.95 µM) | 0.008 to 0.063 (≈ 0.0078 to 0.0615 µM) | 0.004 to 0.5 (≈ 0.0039 to 0.488 µM) | 0.008 to 0.063 (≈ 0.0078 to 0.0615 µM) | 0.008 to 0.125 (≈ 0.0078 to 0.122 µM) | 2 to 32 (≈ 1.95 to 31.2 µM)
2 | CO[C@H]1/C=C/O[C@@]2(C)Oc3c(C)c(O)c4c(c3C2=O)C(=O)C(N[C@H]2CCN(c3cc5c(cc3F)c(=O)c(C(=O)O)cn5C3CC3)C2)=C(NC(=O)/C(C)=C\C=C\[C@H](C)[C@H](O)[C@@H](C)[C@@H](O)[C@@H](C)[C@H](OC(C)=O)[C@@H]1C)C4=O [Example 9, (S)-3-[1-(3-Carboxy-1-cyclopropyl-6-fluoro-4-oxo-1,4-dihydroquinolin-7-yl)-pyrrolidin-3-ylamino]rifamycin S] | 0.125 to 8 (≈ 0.122 to 7.8 µM) | 0.06 to 32 (≈ 0.0585 to 31.2 µM) | 0.004 to 0.5 (≈ 0.0039 to 0.488 µM) | 0.06 to 16 (≈ 0.0585 to 15.6 µM) | 0.5 to 64 | 0.125 to 2 (≈ 0.122 to 1.95 µM) | 0.008 to 0.063 (≈ 0.0078 to 0.0615 µM) | 0.004 to 0.5 (≈ 0.0039 to 0.488 µM) | 0.008 to 0.063 (≈ 0.0078 to 0.0615 µM) | 0.008 to 0.125 (≈ 0.0078 to 0.122 µM) | 2 to 32 (≈ 1.95 to 31.2 µM)
3 | COc1c(N2CCN(C3=C4NC(=O)/C(C)=C\C=C\[C@H](C)[C@H](O)[C@@H](C)[C@@H](O)[C@@H](C)[C@H](OC(C)=O)[C@H](C)[C@@H](OC)/C=C/O[C@@]5(C)Oc6c(C)c(O)c(c(c6C5=O)C3=O)C4=O)C(C)C2)c(F)cc2c(=O)c(C(=O)O)cn(C3CC3)c12 (stereo partly drawn) [Example 10, (R,S)-3-[4-(3-Carboxy-1-cyclopropyl-6-fluoro-8-methoxy-4-oxo-1,4-dihydroquinolin-7-yl)-2-methylpiperazin-1-yl]rifamycin S] | 0.125 to 8 (≈ 0.117 to 7.48 µM) | 0.06 to 32 (≈ 0.0561 to 29.9 µM) | 0.004 to 0.5 (≈ 0.00374 to 0.468 µM) | 0.06 to 16 (≈ 0.0561 to 15 µM) | 0.5 to 64 | 0.125 to 2 (≈ 0.117 to 1.87 µM) | 0.008 to 0.063 (≈ 0.00748 to 0.0589 µM) | 0.004 to 0.5 (≈ 0.00374 to 0.468 µM) | 0.008 to 0.063 (≈ 0.00748 to 0.0589 µM) | 0.008 to 0.125 (≈ 0.00748 to 0.117 µM) | 2 to 32 (≈ 1.87 to 29.9 µM)
4 | CO[C@H]1/C=C/O[C@@]2(C)Oc3c(C)c(O)c4c(O)c(c(CN5CCN(c6cc7c(cc6F)c(=O)c(C(=O)O)cn7C6CC6)CC5)c(O)c4c3C2=O)NC(=O)/C(C)=C\C=C\[C@H](C)[C@H](O)[C@@H](C)[C@@H](O)[C@@H](C)[C@H](OC(C)=O)[C@@H]1C [Example 12, 3-[4-[3-Carboxy-1-cyclopropyl-6-fluoro-4-oxo-(1,4-dihydroquinolin-7-yl)]-piperazin-1-ylmethyl]rifamycin SV] | 0.125 to 8 (≈ 0.12 to 7.68 µM) | 0.06 to 32 (≈ 0.0576 to 30.7 µM) | 0.004 to 0.5 (≈ 0.00384 to 0.48 µM) | 0.06 to 16 (≈ 0.0576 to 15.4 µM) | 0.5 to 64 | 0.125 to 2 (≈ 0.12 to 1.92 µM) | 0.008 to 0.063 (≈ 0.00768 to 0.0605 µM) | 0.004 to 0.5 (≈ 0.00384 to 0.48 µM) | 0.008 to 0.063 (≈ 0.00768 to 0.0605 µM) | 0.008 to 0.125 (≈ 0.00768 to 0.12 µM) | 2 to 32 (≈ 1.92 to 30.7 µM)
5 | CO[C@H]1/C=C/O[C@@]2(C)Oc3c(C)c(O)c4c(O)c(c(CN5CCN(c6nc7c(cc6F)c(=O)c(C(=O)O)cn7-c6ccc(F)cc6F)CC5)c(O)c4c3C2=O)NC(=O)/C(C)=C\C=C\[C@H](C)[C@H](O)[C@@H](C)[C@@H](O)[C@@H](C)[C@H](OC(C)=O)[C@@H]1C [Example 14, 3-[4-[3-carboxy-1-(2,4-Difluoro-phenyl)-6-fluoro-4-oxo-1,4-dihydro-[1,8]naphthyridin-7-yl]piperazin-1-ylmethyl]rifamycin SV] | 0.125 to 8 (≈ 0.112 to 7.18 µM) | 0.06 to 32 (≈ 0.0539 to 28.7 µM) | 0.004 to 0.5 (≈ 0.00359 to 0.449 µM) | 0.06 to 16 (≈ 0.0539 to 14.4 µM) | 0.5 to 64 | 0.125 to 2 (≈ 0.112 to 1.8 µM) | 0.008 to 0.063 (≈ 0.00718 to 0.0565 µM) | 0.004 to 0.5 (≈ 0.00359 to 0.449 µM) | 0.008 to 0.063 (≈ 0.00718 to 0.0565 µM) | 0.008 to 0.125 (≈ 0.00718 to 0.112 µM) | 2 to 32 (≈ 1.8 to 28.7 µM)
6 | CO[C@H]1/C=C/O[C@@]2(C)Oc3c(C)c(O)c4c(O)c(c(CN[C@@H]5CCN(c6cc7c(cc6F)c(=O)c(C(=O)O)cn7C6CC6)C5)c(O)c4c3C2=O)NC(=O)/C(C)=C\C=C\[C@H](C)[C@H](O)[C@@H](C)[C@@H](O)[C@@H](C)[C@H](OC(C)=O)[C@@H]1C [Example 15, (R)-3-[1-(3-carboxy-1-cyclopropyl-6-fluoro-4-oxo-1,4-dihydroquinolin-7-yl)-pyrrolidinyl-3-aminomethyl]rifamycin SV] | 0.125 to 8 (≈ 0.12 to 7.68 µM) | 0.06 to 32 (≈ 0.0576 to 30.7 µM) | 0.004 to 0.5 (≈ 0.00384 to 0.48 µM) | 0.06 to 16 (≈ 0.0576 to 15.4 µM) | 0.5 to 64 | 0.125 to 2 (≈ 0.12 to 1.92 µM) | 0.008 to 0.063 (≈ 0.00768 to 0.0605 µM) | 0.004 to 0.5 (≈ 0.00384 to 0.48 µM) | 0.008 to 0.063 (≈ 0.00768 to 0.0605 µM) | 0.008 to 0.125 (≈ 0.00768 to 0.12 µM) | 2 to 32 (≈ 1.92 to 30.7 µM)
7 | CO[C@H]1/C=C/O[C@@]2(C)Oc3c(C)c(O)c4c(O)c(c(CN[C@H]5CCN(c6cc7c(cc6F)c(=O)c(C(=O)O)cn7C6CC6)C5)c(O)c4c3C2=O)NC(=O)/C(C)=C\C=C\[C@H](C)[C@H](O)[C@@H](C)[C@@H](O)[C@@H](C)[C@H](OC(C)=O)[C@@H]1C [Example 16, (S)-3-[1-(3-carboxy-1-cyclopropyl-6-fluoro-4-oxo-1,4-dihydroquinolin-7-yl)-pyrrolidinyl-3-aminomethyl]rifamycin SV] | 0.125 to 8 (≈ 0.12 to 7.68 µM) | 0.06 to 32 (≈ 0.0576 to 30.7 µM) | 0.004 to 0.5 (≈ 0.00384 to 0.48 µM) | 0.06 to 16 (≈ 0.0576 to 15.4 µM) | 0.5 to 64 | 0.125 to 2 (≈ 0.12 to 1.92 µM) | 0.008 to 0.063 (≈ 0.00768 to 0.0605 µM) | 0.004 to 0.5 (≈ 0.00384 to 0.48 µM) | 0.008 to 0.063 (≈ 0.00768 to 0.0605 µM) | 0.008 to 0.125 (≈ 0.00768 to 0.12 µM) | 2 to 32 (≈ 1.92 to 30.7 µM)
8 | CO[C@H]1/C=C/O[C@@]2(C)Oc3c(C)c(O)c4c(c3C2=O)C(=O)C(N2CCN(c3ccc(N5C[C@H](CNC(C)=O)OC5=O)cc3F)CC2)=C(NC(=O)/C(C)=C\C=C\[C@H](C)[C@H](O)[C@@H](C)[C@@H](O)[C@@H](C)[C@H](OC(C)=O)[C@@H]1C)C4=O [Example 23, (S)-3-[4-[4-(5-Acetylaminomethyl-2-oxo-oxazolidin-3-yl)-2-fluoro-phenyl]-piperazin-1-yl]rifamycin S] | 0.125 to 8 (≈ 0.121 to 7.77 µM) | 0.06 to 32 (≈ 0.0582 to 31.1 µM) | 0.004 to 0.5 (≈ 0.00388 to 0.485 µM) | 0.06 to 16 (≈ 0.0582 to 15.5 µM) | 0.5 to 64 | 0.125 to 2 (≈ 0.121 to 1.94 µM) | 0.008 to 0.063 (≈ 0.00777 to 0.0612 µM) | 0.004 to 0.5 (≈ 0.00388 to 0.485 µM) | 0.008 to 0.063 (≈ 0.00777 to 0.0612 µM) | 0.008 to 0.125 (≈ 0.00777 to 0.121 µM) | 2 to 32 (≈ 1.94 to 31.1 µM)
9 | CO[C@H]1/C=C/O[C@@]2(C)Oc3c(C)c(O)c4c(c3C2=O)C(=O)C(NCCN2CCN(c3ccc(N5C[C@H](CNC(C)=O)OC5=O)cc3F)CC2)=C(NC(=O)/C(C)=C\C=C\[C@H](C)[C@H](O)[C@@H](C)[C@@H](O)[C@@H](C)[C@H](OC(C)=O)[C@@H]1C)C4=O [Example 24, (S)-3-[4-[4-(5-Acetylaminomethyl-2-oxo-oxazolidin-3-yl)-2-fluoro-phenyl]-piperazin-1-ylethylamino]-rifamycin S] | 0.125 to 8 (≈ 0.116 to 7.45 µM) | 0.06 to 32 (≈ 0.0559 to 29.8 µM) | 0.004 to 0.5 (≈ 0.00373 to 0.466 µM) | 0.06 to 16 (≈ 0.0559 to 14.9 µM) | 0.5 to 64 | 0.125 to 2 (≈ 0.116 to 1.86 µM) | 0.008 to 0.063 (≈ 0.00745 to 0.0587 µM) | 0.004 to 0.5 (≈ 0.00373 to 0.466 µM) | 0.008 to 0.063 (≈ 0.00745 to 0.0587 µM) | 0.008 to 0.125 (≈ 0.00745 to 0.116 µM) | 2 to 32 (≈ 1.86 to 29.8 µM)
